According to patent EP4104902B1, “COMPOUNDS AND M[…] SAME” (priority 2020, dated 2021):

Tested on: recombinant rabies virus 1088 strain expressing Gaussia Luciferase (GLuc) (1088/GLuc)
Type: cell-based
Conditions: read-out: Anti-rabies activity

Compound | IC50 [µM]
CC(C)C[C@@H]1[C@@H]2CN[C@@]3(C(=O)NCc4ccc(O)cc4)[C@@H](C2)CN(Cc2ccc(F)cc2)[C@@H]13 (relative stereo) [IB-458] | 10 to 30
O=C(NCCO)[C@]12NC[C@@H]3C[C@H]1CN(Cc1cccc4ccccc14)[C@H]2[C@@H]3Cc1ccc(O)cc1 (relative stereo) [IB-459] | 10 to 30
CC(C)CC[C@@H]1[C@@H]2CN[C@@]3(C(=O)NCCO)[C@@H](C2)CN(CCc2ccccc2)[C@@H]13 (relative stereo) [IB-461] | 10 to 30
CC(C)C[C@@H]1[C@@H]2CN[C@@]3(C(=O)NCc4ccc(O)cc4)[C@@H](C2)CN(Cc2ccccc2)[C@@H]13 (relative stereo) [IB-464] | < 5
CC(C)CC[C@@H]1[C@@H]2CN[C@@]3(C(=O)NCc4ccc(O)cc4)[C@@H](C2)CN(CC(C)C)[C@@H]13 (relative stereo) [IB-465] | 10 to 30
O=C(NCc1ccc(O)cc1)[C@]12NC[C@@H]3C[C@H]1CN(CCO)[C@H]2[C@@H]3Cc1cccc2ccccc12 (relative stereo) [IB-470] | 10 to 30
NC(=O)CCNC(=O)[C@]12NC[C@@H]3C[C@H]1CN(CC1CCCCC1)[C@H]2[C@@H]3Cc1cccc2ccccc12 (relative stereo) [IB-522] | 10 to 30
NC(=O)CCNC(=O)[C@]12NC[C@@H]3C[C@H]1CN(Cc1ccc(F)cc1)[C@H]2[C@@H]3Cc1cccc2ccccc12 (relative stereo) [IB-525] | 10 to 30
O=C(NCc1cccc2ccccc12)[C@]12NC[C@@H]3C[C@H]1CN(CCO)[C@H]2[C@@H]3Cc1ccc(O)cc1 (relative stereo) [IB-527] | 10 to 30
CC(C)CC[C@@H]1[C@@H]2CN[C@@]3(C(=O)NCCc4ccccc4)[C@@H](C2)CN(CCO)[C@@H]13 (relative stereo) [IB-531] | 10 to 30
NC(=O)CCNC(=O)[C@]12NC[C@@H]3C[C@H]1CN(Cc1ccccc1)[C@H]2[C@@H]3CCc1ccccc1 (relative stereo) [IB-535] | 10 to 30
CC(C)CN1C[C@@H]2C[C@H]3CN[C@]2(C(=O)NCCc2ccccc2)[C@@H]1[C@@H]3Cc1ccc(O)cc1 (relative stereo) [IB-536] | 10 to 30
CC(C)CN1C[C@@H]2C[C@H]3CN[C@]2(C(=O)NCCC(N)=O)[C@@H]1[C@@H]3CCc1ccccc1 (relative stereo) [IB-539] | 10 to 30
CC(C)C[C@@H]1[C@@H]2CN[C@@]3(C(=O)NCCc4ccccc4)[C@@H](C2)CN(Cc2ccc(O)cc2)[C@@H]13 (relative stereo) [IB-540] | 10 to 30
CC(C)C[C@@H]1[C@@H]2CN[C@@]3(C(=O)NCc4cccc5ccccc45)[C@@H](C2)CN(Cc2ccc(O)cc2)[C@@H]13 (relative stereo) [IB-541] | < 5
CC(C)CC[C@@H]1[C@@H]2CN[C@@]3(C(=O)NCCc4ccccc4)[C@@H](C2)CN(Cc2ccc(O)cc2)[C@@H]13 (relative stereo) [IB-544] | 10 to 30
O=C(NCc1ccc(F)cc1)[C@]12NC[C@@H]3C[C@H]1CN(CCO)[C@H]2[C@@H]3Cc1ccc(O)cc1 (relative stereo) [IB-549] | 10 to 30
CCCCCCNC(=O)[C@]12NC[C@@H]3C[C@H]1CN(CCC(C)C)[C@H]2[C@@H]3CC(C)C (relative stereo) [IB-551] | < 5
CC(C)CCN1C[C@@H]2C[C@H]3CN[C@]2(C(=O)NCc2ccc(F)cc2)[C@@H]1[C@@H]3CC(C)C (relative stereo) [IB-553] | < 5
CCCCCCNC(=O)[C@]12NC[C@@H]3C[C@H]1CN(Cc1ccccc1)[C@H]2[C@@H]3Cc1ccccc1 (relative stereo) [IB-562] | 10 to 30
O=C(NCc1ccc(F)cc1)[C@]12NC[C@@H]3C[C@H]1CN(Cc1ccccc1)[C@H]2[C@@H]3CCc1ccccc1 (relative stereo) [IB-568] | 10 to 30
CC(C)CCNC(=O)[C@]12NC[C@@H]3C[C@H]1CN(Cc1ccc(O)cc1)[C@H]2[C@@H]3Cc1ccccc1 (relative stereo) [IB-574] | 10 to 30
CC(C)CNC(=O)[C@]12NC[C@@H]3C[C@H]1CN(CCC(=O)O)[C@H]2[C@@H]3Cc1cccc2ccccc12 (relative stereo) [IB-575] | 10 to 30
